Assay results: patent US11752116B2, “Method of viral inhibition” (priority 2013, dated 2023)

Key:
DENV-2 [1] = experiment: Time-of-addition DENV-2 assay in Vero cells, intracellular viral RNA by qRT-PCR; assay type: cell-based; details: 10 μM for 2 h, added prior to, during, or up to 24 h p.i.
Protocol: To investigate whether 4-HPR can inhibit DENV-2 replication when added prior to infection or post infection (p.i.), 10 μM drug or DMSO (drug diluent) was added to Vero cells 2 h prior to infection, for 2 h during infection, 2 h p.i., or 24 h p.i. In each instance the drug was incubated with the cells for 2 h then removed. Infections were performed for 2 h (MOI of 1) followed by analysis of intracellular viral RNA by qRT-PCR 48 h p.i. Data shown are the mean+SD from one experiment, representative of three independent assays.

DENV-1 [2] = experiment: ADE-mediated DENV-1 infection of human PBMCs, plaque assay; assay type: cell-based; details: Dengue virus, DENV1, PBMC, MOI of 10, 48 h, read-out: ex vivo EC50, ADE-mediated DENV-1 infection
Protocol: The antiviral activity of 4-HPR was investigated in the more physiologically relevant human system of peripheral blood mononuclear cells (PBMCs), a major target of DENV infection in humans.
PBMCs were prepared from a healthy donor buffy coat using a Ficoll gradient, prior to ADE-mediated DENV-1 infection (MOI of 10) in the presence of increasing concentrations of 4-HPR or 4-MPR, and infectious virus titres determined by plaque assay 48 h later.

CHIKV = CHIKV infection of HEK293T cells, plaque assay; assay type: cell-based; details: 5 μM, 24 h p.i.
Protocol: HEK293T cells were treated with 5 μM 4-HPR or 4-MPR for 2 h, then infected with CHIKV for 1 h (MOI of 0.1) in the absence of compound (FIG. 9A). Alternatively, HEK293T cells were infected with CHIKV for 1 h (MOI of 0.1) without pre-treating the cells with compound (FIG. 9B). In both instances, virus inoculums were removed, then fresh medium containing the indicated compound was added (FIG. 9A and FIG. 9B). Infectious virus titres were determined by plaque assay 24 h p.i. Data are the mean+standard deviation of one experiment performed in duplicate wells, represented as plaque forming units per ml (PFU/ml).

DENV-2 NS5 / IMPα/β = DENV-2 NS5 / IMPα/β (Dengue virus type 2, UniProt P14340); experiment: AlphaScreen binding of His6-NS5 to IMPα/β heterodimer
Protocol: AlphaScreen®, a luminescent bead-based assay that measures direct protein-protein interactions, was used to examine the binding of 3 nM His6-NS5 to 10 nM IMPα/β (IMPα/β heterodimer containing biotinylated IMPβ1) in the presence of increasing concentrations of 4-HPR, 4-MPR or ATRA (FIG. 1A), or 4-oxo-4-HPR, 4-HPR or 4-MPR (FIG. 1B). Data are the mean±standard deviation (SD) of triplicate wells from a single typical experiment.
(§1) To investigate the specificity of 4-HPR inhibition of NS5-importin association, the binding of 30 nM His6-NS5 to 10 nM IMPα/β, (IMPα/β heterodimer containing biotinylated IMPβ1), 3 nM IMPαΔIBB (biotinylated IMPa with the IMPβ-binding domain removed), or 3 nM biotinylated IMPβ1, in the presence of increasing concentrations of 4-HPR, was investigated.

DENV-2 [3] = experiment: DENV-2 infectivity assay in Vero cells, viral RNA copies in culture medium by RT-PCR; assay type: cell-based; details: MOI of 1
Protocol: To test the specificity of 4-HPR and 4-oxo-4-HPR for anti-DENV activity Vero cells were infected with DENV-2 with a multiplicity of infection (MOI) of 1, in the presence of drug diluent (untreated) or the indicated compounds (10 μM in FIG. 3A, or 10 μM or 5 μM as indicated in FIG. 3B) for 2 h, followed by removal of the virus/drug inoculums, and addition of fresh 2% FCS maintenance medium. At 24 h post infection (p.i.) the culture medium was collected and the viral RNA extracted using QIAamp viral RNA mini kit (Qiagen). Absolute RNA copies present in each sample were determined by Taqman One Step RT-PCR (Applied Biosystems), as an estimate of virus titre by extrapolation from a standard curve generated from in vitro transcribed DENV RNA. Data shown are the mean+standard error of the mean (SEM) for 3 (FIG. 3A) or 2 (FIG. 3B) independent experiments. Statistical analysis (Student's ttest) was performed using GraphPad Prism software.

DENV-3 = experiment: Cell-based flavivirus immunodetection assay in BHK-21 cells, DENV-3; details: MOI of 0.3, 48 h p.i.
Protocol: To investigate this, BHK-21 cells were infected with DENV serotypes 1, 2, 3 or 4 (MOI of 0.3) for 1 h in the presence of 4-HPR or 4-MPR (concentrations as indicated in FIG. 6A). Virus inoculum was removed and fresh media containing the indicated compounds was added. Virus infection rates were determined 48 h p.i. using a cell-based flavivirus immunodetection assay. Briefly, cells were fixed and stained for DENV structural protein, E, followed by addition of Alexa Fluor 488 anti-mouse IgG. Viral antigen quantification was performed using Imagexpress. Data shown are representative of a single experiment

DENV-1 [4] = experiment: Plaque assay in Huh-7 cells, DENV-1; assay type: cell-based; details: Dengue virus, DENV1, Huh-7, 48 h, read-out: EC50, infectious virus titre DENV 1
Protocol: (§2) To ensure the antiviral activity of 4-HPR is not cell-line specific Huh-7 cells were also infected with DENV-1, 2, 3 or 4 (MOI of 0.3) in the presence of increasing concentrations of 4-HPR, with infectious virus titres determined by plaque assay at 48 h p.i.

Vero cells = experiment: XTT cell viability assay in Vero cells; assay type: cell-based; details: 24 h, up to 25 μM
Protocol: To determine the effect of 4-HPR on cell viability, and to ensure that the reduced viral titres were not due to compound toxicity, XTT reagent was used to measure mitochondrial activity of drug treated cells. Briefly, Vero cells were incubated with 0, 1, 10 or 25 μM 4-HPR for 24 h. XTT reagent was added directly to cells and incubated for 6 h at 37° C. prior to spectrophotometric analysis. Data shown are the mean+SD of a single experiment performed in triplicate wells.

DENV-2 NS5 / IMPβ1 = DENV-2 NS5 / IMPβ1 (Dengue virus type 2, UniProt P14340); experiment: AlphaScreen binding of His6-NS5 to biotinylated IMPβ1; details: 30 nM His6-NS5, 3 nM biotinylated IMPβ1, increasing concentrations of 4-HPR
Protocol: as §1

DENV-2 [5] = experiment: Plaque assay in Huh-7 cells, DENV-2; assay type: cell-based; details: Dengue virus, DENV2, Huh-7, 48 h, read-out: EC50, infectious virus titre DENV 2
Protocol: as §2

PERK pathway = experiment: Activation of PERK pathway of the unfolded protein response in DENV-infected cells; assay type: cell-based

In the case of `CC1=C(/C=C/C(C)=C/C=C/C(C)=C/C(=O)Nc2ccc(O)cc2)C(C)(C)CCC1` [4-HPR, N-(4-hydroxyphenyl) retinamide], the “intracellular DENV-2 RNA copies 48 h p.i.” value (DENV-2 [1]) is reported as “substantial reduction”, the EC50 (DENV-1 [2]) is reported as 0.81 µM and the “reduction of infectious CHIKV produced” value (CHIKV; HEK293T cells pre-treated 2 h with compound) is reported as ~100%. For the same compound, the “reduction of infectious CHIKV produced” value (CHIKV; HEK293T cells, compound added after infection) was ~95%, the IC50 (DENV-2 NS5 / IMPα/β) was 1.2 µM and the “block of association of DENV-2 NS5 with IMPα/β” value (DENV-2 NS5 / IMPα/β; 3 nM His6-NS5, 10 nM IMPα/β, increasing concentrations of compound) was “able to block association”. For the same compound, the “reduction in viral RNA copies at 24 h p.i.” value (DENV-2 [3]; 5 μM compound for 2 h during infection) was ~1 log, the “reduction in viral RNA copies at 24 h p.i.” value (DENV-2 [3]; 10 μM compound for 2 h during infection) was 2 log and the “EC50, DENV-3 replication” value (DENV-3) was “low EC50”. The EC50 (DENV-1 [4]) was 2.6 µM, the “effect on cell viability (XTT)” value (Vero cells) was “no effect on cell viability” and the “NS5 binding to IMPβ1 alone” value (DENV-2 NS5 / IMPβ1) was “largely unaffected”. The EC50 (DENV-2 [5]) was 2.1 µM and the “activation of PERK pathway within the unfolded protein response” value (PERK pathway) was “induces activation of the pro-apoptotic PERK pathway”.
